Row | Compound | glass transition temperature [°C]
1 | */C=C/c1ccc(N(c2ccc(/C=C/c3ccc4c5ccc(*)cc5n(CC(CC)CCCC)c4c3)cc2)c2ccc(OCC(CC)CCCC)cc2)cc1 (repeat unit) | 132.00
2 | *CCCc1ccc(-c2c(-c3ccccc3)cc(-c3ccc(-c4cc(-c5ccccc5)c(-c5ccc(*)cc5)c(-c5ccccc5)c4-c4ccccc4)cc3)c(-c3ccccc3)c2-c2ccccc2)cc1 (repeat unit) | 290.00
3 | *CCCc1ccc(-c2c(-c3ccccc3)cc(-c3cccc(-c4cc(-c5ccccc5)c(-c5ccc(*)cc5)c(-c5ccccc5)c4-c4ccccc4)c3)c(-c3ccccc3)c2-c2ccccc2)cc1 (repeat unit) | 240.00
4 | *CNC(=O)OCC(OC(=O)NCc1ccc(C(C)(C)c2ccc(*)o2)o1)c1ccco1 (repeat unit) | 20.00
5 | *CNC(=O)OCCOC(=O)NCc1ccc(C(C)(C)c2ccc(*)o2)o1 (repeat unit) | 50.00
6 | *CNC(=O)OCc1ccc(COC(=O)NCc2ccc(C(C)(C)c3ccc(*)o3)o2)o1 (repeat unit) | 55.00
7 | *CNC(=O)OCc1cocc1COC(=O)NCc1ccc(C(C)(C)c2ccc(*)o2)o1 (repeat unit) | 25.00
8 | *Cc1ccc(C(C)(CC)c2ccc(Cn3c(=O)c4cc5c(=O)n(*)c(=O)c5cc4c3=O)o2)o1 (repeat unit) | 143.00
9 | *Cc1ccc(C(C)(CCC)c2ccc(Cn3c(=O)c4cc5c(=O)n(*)c(=O)c5cc4c3=O)o2)o1 (repeat unit) | 134.00
10 | *OS(=O)(=O)c1cc(S(=O)(=O)Oc2ccc(C3(c4ccc(*)cc4)CCCCC3)cc2)ccc1C (repeat unit) | 142.00
11 | *Oc1ccc(C(c2ccc(Oc3ccc(C(=O)c4ccc(C(C)(C)c5ccc(C(=O)c6ccc(*)cc6)cc5)cc4)cc3)cc2)(C(F)(F)F)C(F)(F)F)cc1 (repeat unit) | 179.00
12 | *c1ccc(C(*)C)cc1 (repeat unit) | 93.00
13 | *c1ccc(C(C#N)(C(=O)O)C(*)(C#N)C(=O)O)cc1 (repeat unit) | 108.00
14 | *c1ccc(C(C#N)(C(=O)OCCCC)C(*)(C#N)C(=O)OCCCC)cc1 (repeat unit) | 108.00
15 | *c1ccc(C(Cl)(Cl)C(*)Cl)cc1 (repeat unit) | 160.00
16 | *c1ccc(C(c2ccc(C#N)cc2)c2ccc(N(*)c3ccc(C)cc3)cc2)cc1 (repeat unit) | 230.00
17 | *c1ccc(C2(c3ccc(-c4cc(-c5ccccc5)c5cc(-c6ccc7nc(*)cc(-c8ccccc8)c7c6)ccc5n4)cc3)c3ccccc3-c3ccccc32)cc1 (repeat unit) | 420.00
18 | *c1ccc(Cc2ccc(N3C(=O)c4c(c(-c5ccccc5)c(-c5ccc(Oc6ccc(-c7c(-c8ccccc8)c8c(c(-c9ccccc9)c7-c7ccccc7)C(=O)N(*)C8=O)cc6)cc5)c(-c5ccccc5)c4-c4ccccc4)C3=O)cc2)cc1 (repeat unit) | 356.00

Continued, values first:

Row | glass transition temperature [°C] | Compound
19 | 181.00 | *C(=O)Nc1ccc(C2(c3ccc(NC(=O)c4ccc5c(c4)C(=O)N(c4ccc(-c6ccc(N7C(=O)c8ccc(*)cc8C7=O)c(OC)c6)cc4OC)C5=O)cc3)c3ccccc3-c3ccccc32)cc1 (repeat unit)
20 | 320.00 | *C(=O)c1ccc2c(c1)C(=O)N(c1ccc(C3(C)CC(C)(C)c4ccc(N5C(=O)c6ccc(*)cc6C5=O)cc43)cc1)C2=O (repeat unit)
21 | 315.00 | *C(=O)c1ccc2c(c1)C(=O)N(c1ccc(N(c3ccc(C#N)cc3)c3ccc(N4C(=O)c5ccc(*)cc5C4=O)cc3)cc1)C2=O (repeat unit)
22 | 246.00 | *C(=O)c1ccc2c(c1)C(=O)N(c1ccc(Sc3ccc(N4C(=O)c5ccc(*)cc5C4=O)cn3)nc1)C2=O (repeat unit)
23 | 294.00 | *C(=O)c1ccc2c(c1)C(=O)N(c1cccc(C#Cc3cccc(N4C(=O)c5ccc(*)cc5C4=O)c3)c1)C2=O (repeat unit)
24 | 129.00 | *Cc1ccc(C(C)(C)c2ccc(CN3C(=O)c4ccc(-c5ccc6c(c5)C(=O)N(*)C6=O)cc4C3=O)o2)o1 (repeat unit)
25 | 134.00 | *Cc1ccc(C(C)(C)c2ccc(CN3C(=O)c4ccc(C(c5ccc6c(c5)C(=O)N(*)C6=O)(C(F)(F)F)C(F)(F)F)cc4C3=O)o2)o1 (repeat unit)
26 | 116.00 | *Cc1ccc(C(C)c2ccc(Cn3c(=O)c4cc5c(=O)n(*)c(=O)c5cc4c3=O)o2)o1 (repeat unit)
27 | 140.00 | *Oc1ccc(Cc2ccc(OC(=O)c3ccc(C(C)(C)c4ccc(C(*)=O)cc4)cc3)cc2)cc1 (repeat unit)
28 | 176.00 | *Oc1ccc(OC(=O)c2ccc([Si](C)(C)c3ccc(C(*)=O)cc3)cc2)cc1 (repeat unit)
29 | 175.00 | *Sc1ccc(C(=O)c2ccc(C(C)(C)c3ccc(C(=O)c4ccc(*)cc4)cc3)cc2)cc1 (repeat unit)
30 | 302.00 | *c1ccc(-c2ccc(N3C(=O)c4ccc(-c5ccc6c(c5)C(=O)N(*)C6=O)cc4C3=O)c(C)c2)cc1C (repeat unit)
31 | 222.00 | *c1ccc(C(c2ccc(C(=O)OC)cc2)c2ccc(N(*)c3ccc(C)cc3)cc2)cc1 (repeat unit)
32 | 220.00 | *c1ccc(CCc2ccc(N3C(=O)C(=O)N(c4ccc(CCc5ccccc5N5C(=O)C(=O)N(*)C5=O)cc4)C3=O)cc2)cc1 (repeat unit)
33 | 252.00 | *c1ccc(Cc2ccc(-n3nc(-c4ccccc4)cc3-c3ccc(-c4cc(-c5ccccc5)nn4*)cc3)cc2)cc1 (repeat unit)
34 | 341.00 | *c1ccc(Cc2ccc(N3C(=O)C4CCC5C(=O)N(*)C(=O)C5C4C3=O)cc2)cc1 (repeat unit)
35 | 259.50 | *c1ccc(Cc2ccc(N3C(=O)N(c4ccc(Cc5ccc(N6C(=O)N(*)C(C)(C)C6=O)cc5)cc4)C(=O)C3(C)C)cc2)cc1 (repeat unit)
36 | 277.00 | *c1ccc(Cc2ccc(N3C(=O)c4ccc(Oc5ccc(Oc6ccc7c(c6)C(=O)N(*)C7=O)cc5)cc4C3=O)c(C)c2C)c(C)c1C (repeat unit)
37 | 255.00 | *c1ccc(OC(=O)c2ccc([Si](C)(C)c3ccc(C(=O)Oc4ccc(C5(*)c6ccccc6C(=O)N5c5ccccc5)cc4)cc3)cc2)cc1 (repeat unit)
38 | 52.00 | *c1ccc(OCCCCCCOc2ccc(C3C4C(=O)N(c5ccc(N6C(=O)C7ON(C)C(*)C7C6=O)cc5)C(=O)C4ON3C)cc2)cc1 (repeat unit)
39 | 371.00 | *c1ccc(Oc2ccc(-c3c(-c4ccccc4)c4c(c(-c5ccccc5)c3-c3ccccc3)C(=O)N(c3ccc(N5C(=O)c6c(c(-c7ccccc7)c(-c7ccccc7)c(*)c6-c6ccccc6)C5=O)cc3)C4=O)cc2)cc1 (repeat unit)
40 | 299.00 | *c1ccc2c(c1)C(=O)N(c1ccc(C3(c4ccc(N5C(=O)c6ccc(C(*)(C(F)(F)F)C(F)(F)F)cc6C5=O)c(C(C)C)c4)c4ccccc4-c4ccccc43)cc1C(C)C)C2=O (repeat unit)
41 | 362.50 | *c1ccc2c(c1)C(=O)N(c1ccc(Oc3c(C(C)(C)C)cc(-c4ccc(N5C(=O)c6ccc(C(*)(C(F)(F)F)C(F)(F)F)cc6C5=O)cc4)cc3C(C)(C)C)c(C(F)(F)F)c1)C2=O (repeat unit)

Source: the PolyMetriX glass transition set
